# Data: US6747044B2, “Neurokinin antagonists” (Boehringer Ingelheim Pharma KG, priority 2000, dated 2004)
# Target: T1, NK1 receptor (Cavia porcellus, UniProt P30547)
# T1 construct: Guinea pigs (300-500 g) were anaesthetised with pentobarbital (50 mg/kg i.p.); from tissue; host or cells: whole anaesthetised guinea pig (in vivo)
# Assay: Inhibition of NK1-induced fall in blood pressure in anaesthetised guinea pigs (duration of activity)
# Type: in vivo, guinea pig
# Conditions: test substance intraduodenal, NK1-agonist 0.2 μmol/kg i.v. every 30 min for 6 to 8 hours
# Method: Determining the Duration of Activity
# Inhibition of NK1-induced Fall in Blood Pressure in Anaesthetised Guinea Pigs
# Guinea pigs (300-500 g) were anaesthetised with pentobarbital (50 mg/kg i.p.) and prepared for duodenal administration of the test substances and for measurement of the arterial blood pressure. A temporary drop in blood pressure was induced by the intravenous administration of an NK1-agonist (0.2 μmol/kg at 30 minute intervals). After the basal value of the blood pressure had been determined the test substances were administered by intraduodenal route. Then the NK1-agonist was administered intravenously every 30 min for 6 to 8 hours. The results were expressed as a percentage inhibition in the NK1-induced fall in blood pressure and the ED50 values were calculated by regression analysis.
# T1 sequence (P30547 whole entry): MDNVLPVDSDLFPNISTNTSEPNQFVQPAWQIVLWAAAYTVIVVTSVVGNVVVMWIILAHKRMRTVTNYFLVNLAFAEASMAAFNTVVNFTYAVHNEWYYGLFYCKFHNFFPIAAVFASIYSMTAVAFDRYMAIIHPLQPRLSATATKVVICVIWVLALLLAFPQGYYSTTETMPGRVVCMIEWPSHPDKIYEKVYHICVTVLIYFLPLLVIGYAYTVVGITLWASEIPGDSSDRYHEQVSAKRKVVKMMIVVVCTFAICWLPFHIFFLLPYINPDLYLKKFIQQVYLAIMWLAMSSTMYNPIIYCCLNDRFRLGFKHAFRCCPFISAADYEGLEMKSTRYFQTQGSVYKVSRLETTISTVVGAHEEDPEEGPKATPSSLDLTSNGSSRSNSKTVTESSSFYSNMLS
row,SMILES,Duration of activity [min]
1,"CN(CCc1cc(C(F)(F)F)cc(C(F)(F)F)c1)C(=O)C(c1ccccc1)N1CCC(N(C)CCCO)CC1 (stereo not shown) [Example 1, N-[2-(3,5-Bis-trifluoromethyl-phenyl)-ethyl]-2-{4-[(3-hydroxy-propyl)-methyl-amino]-piperidine-1-yl}-N-methyl-2-phenyl-acetamide]",>360
2,"CN(CCc1cc(C(F)(F)F)cc(C(F)(F)F)c1)C(=O)C(c1ccccc1)N1CCC(NC(CO)CO)CC1 (stereo not shown) [Example 2, N-[2-(3,5-bis-trifluoromethyl-phenyl)-ethyl]-2-[4-(2-hydroxy-1-hydroxymethyl-ethylamino)-piperidin-1-yl]-N-methyl-2-phenylacetamide]",>360
3,"CN(CCc1cc(C(F)(F)F)cc(C(F)(F)F)c1)C(=O)C(c1ccccc1)N1CCC(N(C)CC2CC2)CC1 (stereo not shown) [Example 3, N-[2-(3,5-bis-trifluoromethyl-phenyl)-ethyl]-2-[4-(cyclopropylmethyl-methyl-amino)-piperidin-1-yl]-N-methyl-2-phenyl-acetamide]",>360
4,"CN(CCc1cc(C(F)(F)F)cc(C(F)(F)F)c1)C(=O)C(c1ccccc1)N1CCC(N(CCO)CCCO)CC1 (stereo not shown) [Example 4, N-[2-(3,5-bis-trifluoromethyl-phenyl)-ethyl]-2-{4-[(2-hydroxy-ethyl)-(3-hydroxy-propyl)-amino]-piperidin-1-yl}-N-methyl-2-phenyl-acetamide]",>360
5,"CN(CCc1cc(C(F)(F)F)cc(C(F)(F)F)c1)C(=O)[C@H](c1ccccc1)N1CCC(N(CCCO)CC2CC2)CC1 [Example 5, (S)—N-[2-(3.5-bis-trifluoromethyl-phenyl)-ethyl]-2-{4-[cyclopropylmethyl-(3-hydroxy-propyl)-amino]-piperidin-1-yl}-N-methyl-2-phenyl-acetamide]",>360
6,"CN(CCc1cc(C(F)(F)F)cc(C(F)(F)F)c1)C(=O)[C@H](c1ccccc1)N1CCC(N(C)CCO)CC1 [Example B-1, reference compound]",120
7,"CN(CCc1cc(C(F)(F)F)cc(C(F)(F)F)c1)C(=O)[C@H](c1ccccc1)N1CCC(N(CCO)CCO)CC1 [Example B-4, reference compound]",120
